Assay results reported in ChEMBL document CHEMBL3596110, “Design of glycosyltransferase inhibitors targeting human O-GlcNAc transferase (OGT)” (Medchemcomm, 2014).
Calls of active or inactive are those of the source. The calls are words filed in the database; no cut-off is given here.

How the values were obtained:
[1] = target: T1, UDP-N-acetylglucosamine--peptide N-acetylglucosaminyltransferase 110 kDa subunit (Homo sapiens, UniProt O15294); assay: Inhibition of human OGT using [3H]-UDP-GlcNAc as donor and recombinant nup2 as acceptor by liquid scintillation counting analysis
T1 sequence (O15294 whole entry): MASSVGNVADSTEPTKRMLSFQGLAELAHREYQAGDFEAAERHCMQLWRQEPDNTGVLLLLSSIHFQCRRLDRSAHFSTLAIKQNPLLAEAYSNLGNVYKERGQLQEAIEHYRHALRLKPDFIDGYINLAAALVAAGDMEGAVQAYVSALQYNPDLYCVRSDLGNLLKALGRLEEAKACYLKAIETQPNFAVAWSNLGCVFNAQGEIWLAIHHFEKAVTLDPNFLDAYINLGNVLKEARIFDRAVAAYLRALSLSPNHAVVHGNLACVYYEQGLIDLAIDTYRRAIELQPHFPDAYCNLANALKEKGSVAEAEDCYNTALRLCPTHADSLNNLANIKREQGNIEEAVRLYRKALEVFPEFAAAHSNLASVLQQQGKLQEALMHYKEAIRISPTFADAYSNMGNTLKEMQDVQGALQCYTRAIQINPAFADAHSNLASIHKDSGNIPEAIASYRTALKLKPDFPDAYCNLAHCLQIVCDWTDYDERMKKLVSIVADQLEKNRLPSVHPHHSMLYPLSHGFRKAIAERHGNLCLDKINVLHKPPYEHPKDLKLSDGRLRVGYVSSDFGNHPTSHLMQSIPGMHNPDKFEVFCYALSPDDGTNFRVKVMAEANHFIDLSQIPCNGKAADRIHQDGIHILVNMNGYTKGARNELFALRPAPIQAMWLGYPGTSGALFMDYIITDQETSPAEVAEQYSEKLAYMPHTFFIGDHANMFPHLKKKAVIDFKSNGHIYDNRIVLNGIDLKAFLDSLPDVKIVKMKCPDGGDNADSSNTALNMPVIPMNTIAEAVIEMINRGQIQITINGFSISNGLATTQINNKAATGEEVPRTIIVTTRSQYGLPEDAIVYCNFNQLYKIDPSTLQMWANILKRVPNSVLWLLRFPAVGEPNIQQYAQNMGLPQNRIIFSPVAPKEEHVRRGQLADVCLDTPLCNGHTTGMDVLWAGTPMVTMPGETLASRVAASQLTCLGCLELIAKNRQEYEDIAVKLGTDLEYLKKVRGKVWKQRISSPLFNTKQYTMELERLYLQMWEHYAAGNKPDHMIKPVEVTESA

[2] = target: T2, UDP-N-acetylglucosamine--peptide N-acetylglucosaminyltransferase 110 kDa subunit (Homo sapiens) (UniProt O15294); assay: Inhibition of OGT in human MCF7 cells assessed as decrease in intracellular O-GlcNAcylated protein level up to 500 uM after 24 to 48 hrs by immunoblot analysis; type: cell-based
T2 sequence (whole entry): T1 sequence (O15294 whole entry)

[3] = target: T1, UDP-N-acetylglucosamine--peptide N-acetylglucosaminyltransferase 110 kDa subunit; assay: Inhibition of human OGT using [3H]-UDP-GlcNAc as donor and recombinant nup2 as acceptor by Dixon plot analysis
[4] = target: T2, UDP-N-acetylglucosamine--peptide N-acetylglucosaminyltransferase 110 kDa subunit (Homo sapiens); assay: Inhibition of human OGT using [3H]-UDP-GlcNAc as donor and recombinant nup2 as acceptor at 50 uM by liquid scintillation counting analysis
[5] = Permeability across POPC liposomes by in-out method; type: ADME
[6] = target: T2, UDP-N-acetylglucosamine--peptide N-acetylglucosaminyltransferase 110 kDa subunit (Homo sapiens); assay: Inhibition of OGT in human HeLa cells assessed as decrease in intracellular O-GlcNAcylated protein level up to 500 uM after 24 to 48 hrs by immunoblot analysis; type: cell-based
[7] = Permeability across POPC liposomes by out-in method; type: ADME
[8] = target: T2, UDP-N-acetylglucosamine--peptide N-acetylglucosaminyltransferase 110 kDa subunit (Homo sapiens); assay: Inhibition of OGT in human MCF10A cells assessed as decrease in intracellular O-GlcNAcylated protein level up to 500 uM after 24 to 48 hrs by immunoblot analysis; type: cell-based; details: MCF-10A

| IC50 [1] [µM] | inhibition [2] | inhibition [4] [%] | SMILES | also measured |
| --- | --- | --- | --- | --- |
| 10 | – | – | O=C(Oc1ccccc1)n1c(=O)oc2ccc(Cl)cc21 | – |
| 710 | – | 15.5 | O=c1ccn([C@@H]2O[C@H](Cn3cc(-c4cccc(Br)n4)nn3)[C@@H](O)[C@H]2O)c(=O)[nH]1 | – |
| – | – | – | CC(=O)N[C@@H]1[C@@H](O)[C@H](O)[C@@H](CO)S[C@@H]1OP(=O)(O)OP(=O)(O)OC[C@H]1O[C@@H](n2ccc(=O)[nH]c2=O)[C@H](O)[C@@H]1O | Ki [3]: 8 µM |
| – | inactive | 7.6 | O=C(NC[C@H]1O[C@@H](n2ccc(=O)[nH]c2=O)[C@H](O)[C@@H]1O)c1cccc(Br)n1 | – |
| – | inactive | 4.2 | O=C(NC[C@H]1O[C@@H](n2ccc(=O)[nH]c2=O)[C@H](O)[C@@H]1O)c1cccc(-c2cn([C@@H]3O[C@H](CO)[C@@H](O)[C@H](O)[C@H]3O)nn2)n1 | – |
| – | inactive | 6.7 | CC(=O)N[C@@H]1[C@@H](O)[C@H](O)[C@@H](CO)O[C@H]1n1cc(-c2cccc(-c3cn(C[C@H]4O[C@@H](n5ccc(=O)[nH]c5=O)[C@H](O)[C@@H]4O)nn3)n2)nn1 | – |
| – | inactive | 3 | CC(=O)N[C@@H]1[C@@H](O)[C@H](O)[C@@H](CO)O[C@H]1NC(=O)c1cccc(Cc2cn(C[C@H]3O[C@@H](n4ccc(=O)[nH]c4=O)[C@H](O)[C@@H]3O)nn2)n1 | – |
| – | – | – | O=C(NC[C@H]1O[C@@H](n2ccc(=O)[nH]c2=O)[C@H](O)[C@@H]1O)c1cccc(CO[C@@H]2O[C@H](CO)[C@@H](O)[C@H](O)[C@H]2O)n1 | permeability [5]: impermeable; permeability [7]: impermeable |
| – | inactive | 9.7 | CC(=O)N[C@@H]1[C@@H](O)[C@H](O)[C@@H](CO)O[C@H]1n1cc(-c2cccc(C(=O)NC[C@H]3O[C@@H](n4ccc(=O)[nH]c4=O)[C@H](O)[C@@H]3O)n2)nn1 | – |
| – | – | – | CC(=O)N[C@@H]1[C@@H](O)[C@H](O)[C@@H](CO)O[C@@H]1SP(=O)(O)OP(=O)(O)OC[C@H]1O[C@@H](n2ccc(=O)[nH]c2=O)[C@H](O)[C@@H]1O | Ki [3]: 93 µM |
| 1600 | inactive | 13.3 | O=c1ccn([C@@H]2O[C@H](Cn3cc(-c4cccc(-c5cn([C@@H]6O[C@H](CO)[C@@H](O)[C@H](O)[C@H]6O)nn5)n4)nn3)[C@@H](O)[C@H]2O)c(=O)[nH]1 | – |

| SMILES | IC50 [1] [µM] | inhibition [2] | inhibition [4] [%] | also measured |
| --- | --- | --- | --- | --- |
| O=C(N[C@@H]1O[C@H](CO)[C@@H](O)[C@H](O)[C@H]1O)c1cccc(Cc2cn(C[C@H]3O[C@@H](n4ccc(=O)[nH]c4=O)[C@H](O)[C@@H]3O)nn2)n1 | 340 | inactive | 18 | Ki [3]: 420 µM; permeability [5]: impermeable; inhibition [6]: inactive; permeability [7]: impermeable; inhibition [8]: inactive |
